Experimental data published in US20250230138A1, “COMPOUNDS HAVING A T-STRUCTURE FORMED BY AT LEAST FOUR CYCLES FOR USE IN THE TREATMENT OF CANCER AND OTHER INDICATIONS” (TheRas, Inc., priority 2022, published 2025).

How the values were obtained:
pAKT in BT474 cells = assay: Cell-based pAKT HTRF assay in BT474 cells; conditions: BT474 cells; 4 hr incubation; Compounds 10-999; read-out: pAKT inhibition IC50 in BT474 cells
How it was run: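 9-pt curve, top 3 μM, 3-fold steps, 0.25% DMSO; 4 hr compound exposure. Lysis, then HTRF with d2/Eu Cryptate antibody pair, 4–24 h RT. Ex 320 nm, Em 615 nm.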

[1] = target: Cys242 in human PIK3CA (157-299) (Homo sapiens (Human), UniProt P42336); assay: Covalent modification assay using MALDI-TOF MS; format: biochemical; conditions: 4 h reaction time point; 3.33 μM protein target, 1:7.5 protein to compound ratio (compounds 1-852)
Sequence of Cys242 in human PIK3CA (157-299) (P42336 157-299): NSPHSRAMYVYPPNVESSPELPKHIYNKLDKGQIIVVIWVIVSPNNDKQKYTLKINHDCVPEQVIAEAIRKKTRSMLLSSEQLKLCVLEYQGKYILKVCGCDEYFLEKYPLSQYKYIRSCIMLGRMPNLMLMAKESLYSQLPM
How it was run: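 Covalent adduct formation was read by linear-mode MALDI-TOF with sinapinic acid matrix, reported as modified-protein peak height divided by total protein peak heights. Reactions held PIK3CA (157-299) at 1 or 3.33 μM in HEPES/NaCl/MgCl2 buffer, pH 7.3, sampled after 15 min to 4 h at room temperature.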

## C=CC(=O)N1CCn2nc(-c3nc(-c4ccc5oc(C)nc5c4)c4ccsc4c3-c3c(F)cc(F)cc3OCCO)cc2[C@@H]1C [Compound 654]
pAKT in BT474 cells
  IC50: < 100 nM
[1]
  % of modification: A (percent of modification of PIK3CA protein ≥75%)

## C=CC(=O)N1CCn2nc(-c3nc(-c4ccc5oc(C)nc5c4)c4ccsc4c3-c3c(F)cc(F)cc3OC[C@@H](C)O)cc2[C@@H]1C [Compound 655]
pAKT in BT474 cells
  IC50: < 100 nM
[1]
  % of modification: A (percent of modification of PIK3CA protein ≥75%)

## C=CC(=O)N1CCn2nc(-c3nc(-c4ccc5cnncc5c4)c4ccsc4c3-c3c(F)cc(F)cc3OCCO)cc2C1C (centres unmarked) [Compound 660]
pAKT in BT474 cells
  IC50: 100 to 1000 nM
[1]
  % of modification: C (25%≤percent of modification <50%)

## C=CC(=O)N1CCn2nc(-c3nc(-c4ccc5c(cnn5C)c4)c4ccsc4c3-c3c(F)cc(F)cc3OCCO)cc2[C@@H]1C [Compound 663, 1-((S)-2-((S)-7-(2,4-difluoro-6-(2-hydroxyethoxy)phenyl)-4-(1-methyl-1H-indazol-5-yl)thieno[3,2-c]pyridin-6-yl)-4-methyl-6,7-dihydropyrazolo[1,5-a]pyrazin-5(4H)-yl)prop-2-en-1-one]
pAKT in BT474 cells
  IC50: < 100 nM
[1]
  % of modification: A (percent of modification of PIK3CA protein ≥75%)

## C=CC(=O)N1CCn2nc(-c3nc(-c4ccc5c(c4)ncn5C)c4ccsc4c3-c3c(F)cc(F)cc3OCCO)cc2[C@@H]1C [Compound 664, 1-((S)-2-((S)-7-(2,4-difluoro-6-(2-hydroxyethoxy)phenyl)-4-(1-methyl-1H-benzo[d]imidazol-5-yl)thieno[3,2-c]pyridin-6-yl)-4-methyl-6,7-dihydropyrazolo[1,5-a]pyrazin-5(4H)-yl)prop-2-en-1-one]
pAKT in BT474 cells
  IC50: < 100 nM
[1]
  % of modification: A (percent of modification of PIK3CA protein ≥75%)

## C=CC(=O)N1Cc2cc(-c3nc(-c4ccc5nn(C)cc5c4)c4ccsc4c3-c3c(F)cc(F)cc3OCCOC)nn2C[C@H]1C [Compound 668, 1-((R)-2-((S)-7-(2,4-difluoro-6-(2-methoxyethoxy)phenyl)-4-(2-methyl-2H-indazol-5-yl)thieno[3,2-c]pyridin-6-yl)-6-methyl-6,7-dihydropyrazolo[1,5-a]pyrazin-5(4H)-yl)prop-2-en-1-one]
pAKT in BT474 cells
  IC50: < 100 nM
[1]
  % of modification: A (percent of modification of PIK3CA protein ≥75%)

## C=CC(=O)N1Cc2cc(-c3nc(-c4ccc5c(c4)ncn5C)c4ccsc4c3-c3c(F)cc(F)cc3OCCOC)nn2C[C@H]1C [Compound 669]
pAKT in BT474 cells
  IC50: < 100 nM
[1]
  % of modification: A (percent of modification of PIK3CA protein ≥75%)

## C=CC(=O)N1Cc2cc(-c3nc(-c4cncc(C#N)c4)c4ccsc4c3-c3c(F)cc(F)cc3OCCOC)nn2C[C@H]1C [Compound 670]
pAKT in BT474 cells
  IC50: < 100 nM
[1]
  % of modification: A (percent of modification of PIK3CA protein ≥75%)

## C=CC(=O)N1CCn2nc(-c3nc(-c4ccc5c(cnn5C)c4)c4ccsc4c3-c3c(F)cc(F)cc3OC[C@@H](C)O)cc2[C@@H]1C [Compound 671]
pAKT in BT474 cells
  IC50: < 100 nM
[1]
  % of modification: A (percent of modification of PIK3CA protein ≥75%)

## C=CC(=O)N1CCn2nc(-c3nc(-c4ccc5cnncc5c4)c4ccsc4c3-c3c(F)cc(F)cc3OCCO)cc2[C@@H]1C [Compound 672]
pAKT in BT474 cells
  IC50: < 100 nM
[1]
  % of modification: A (percent of modification of PIK3CA protein ≥75%)

## C=CC(=O)N1Cc2cc(-c3nc(-c4cnn(C)c4)c4ccsc4c3-c3c(F)cc(F)cc3OCCO)nn2C[C@H]1C [Compound 673]
pAKT in BT474 cells
  IC50: 100 to 1000 nM
[1]
  % of modification: D (percent of modification <25%)

## C=CC(=O)N1Cc2cc(-c3nc(-c4cnn(C)c4)c4ccsc4c3-c3c(F)cc(F)cc3OCCO)nn2C[C@H]1C [Compound 674]
pAKT in BT474 cells
  IC50: < 100 nM
[1]
  % of modification: A (percent of modification of PIK3CA protein ≥75%)

## C=CC(=O)N1CCn2nc(-c3nc(-c4cncc(C#N)c4)c4ccsc4c3-c3c(F)cc(F)cc3OC[C@@H](C)O)cc2[C@@H]1C [Compound 676]
pAKT in BT474 cells
  IC50: < 100 nM
[1]
  % of modification: A (percent of modification of PIK3CA protein ≥75%)
